Each structure is given as a SMILES string.

Drawing on the supplement of paper PMC10627819, this text covers Bliss interaction score and fitness for eight compounds.

In assay [1] the test system is S. aureus DSM 20231. The assay is described as follows: Bliss interaction score (quartile over a dose matrix) (fitness difference); higher = more antagonism (negative = synergy). The method in brief: (§1)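 Growth was read as OD595 when cultures entered stationary phase, and each value was divided by the plate's robust no-drug mean and capped at 1. This normalised ratio is the fitness value, and fitness for each single drug came from the combination data. The Bliss score subtracts the expected fitness, taken as the product, from the observed fitness and is given as quartiles across technical, biological and donor/recipient replicates.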

Assay [2] has as its system B. subtilis 168. The assay is described as above. The method in brief:
as §1

Assay [3] deals with S. aureus Newman. The assay is described as above. The method in brief:
as §1

Assay [4] relates to S. pneumoniae D39V. Described as above. The method in brief:
as §1

Assay [5] deals with S. aureus DSM 20231. The assay is described as follows: fitness (endpoint OD595 vs no drug) (fraction); higher = more growth. The method in brief: (§2)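 Growth medium was TSB, LB Lennox or CY, and plates were kept at 37 °C. Inoculation was at OD595 0.01 in 384-well plates, at 30 µl per well or 55 µl for S. pneumoniae. OD595 was monitored every 30 min for 14 h and background-subtracted using the first reading. Fitness is the optical density on entering stationary phase divided by the robust mean of no-drug controls, with values capped at 1.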

Assay [6] deals with S. aureus Newman. Described as above. The method in brief:
as §2

[7] abbreviates: first compound 0.75 µg/mL, partner 0.625 µg/mL.
Setting [8] is: first compound 0.75 µg/mL, partner 1.25 µg/mL.
Where [9] appears, read: first compound 0.75 µg/mL, partner 2.5 µg/mL.
The mark [10] stands for this setting: first compound 1.5 µg/mL, partner 0.625 µg/mL.
Setting [11] is: first compound 1.5 µg/mL, partner 1.25 µg/mL.
[12] abbreviates: first compound 1.5 µg/mL, partner 2.5 µg/mL.
[13] abbreviates: first compound 3 µg/mL, partner 0.625 µg/mL.
Where [14] appears, read: first compound 3 µg/mL, partner 1.25 µg/mL.
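Wherever Bliss interaction score (quartile over a dose matrix) is given: first quartile when negative (synergy) and third quartile when positive (antagonism).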
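Wherever fitness (endpoint OD595 vs no drug) is given: OD595 on entry to stationary phase over no-drug wells; at most 1.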

Turning to `CC(=O)OC[C@H]1O[C@@H]([S-])[C@H](OC(C)=O)[C@@H](OC(C)=O)[C@@H]1OC(C)=O.CCP(CC)CC.[Au+]` [Auranofin] + CC[C@H]1OC(=O)[C@H](C)[C@@H](O[C@H]2C[C@@](C)(OC)[C@@H](O)[C@H](C)O2)[C@H](C)[C@@H](O[C@@H]2O[C@H](C)C[C@H](N(C)C)[C@H]2O)[C@](C)(OC)C[C@@H](C)C(=O)[C@H](C)[C@@H](O)[C@]1(C)O [Clarithromycin], the Bliss interaction score in assay [1] came to 0.0219; in assay [2] it was 0.0346; in assay [3] it was 0.0636; in assay [4], 0.039.
For `CC(=O)OC[C@H]1O[C@@H]([S-])[C@H](OC(C)=O)[C@@H](OC(C)=O)[C@@H]1OC(C)=O.CCP(CC)CC.[Au+]` [Auranofin] + CC[C@H](C)[C@H](N)C1=N[C@H](C(=O)N[C@@H](CC(C)C)C(=O)N[C@H](CCC(=O)O)C(=O)N[C@H](C(=O)N[C@H]2CCCCNC(=O)[C@H](CC(N)=O)NC(=O)[C@@H](CC(=O)O)NC(=O)[C@H](Cc3cnc[nH]3)NC(=O)[C@@H](Cc3ccccc3)NC(=O)[C@H]([C@@H](C)CC)NC(=O)[C@@H](CCCN)NC2=O)[C@@H](C)CC)CS1 [Bacitracin], the Bliss interaction score in assay [1] (main component drawn) is 0.0174; in assay [2] (main component drawn), 0.165; in assay [3] (main component drawn) it was 0.133; in assay [4] (main component drawn), -0.0398.
Turning to `CC(=O)OC[C@H]1O[C@@H]([S-])[C@H](OC(C)=O)[C@@H](OC(C)=O)[C@@H]1OC(C)=O.CCP(CC)CC.[Au+]` [Auranofin] + CN1C2=CC=CC=C2N=C3C1=CC=CC3=O [Pyocyanin], the Bliss interaction score in assay [1] was 0.0747; in assay [2] it was -0.0273; in assay [3], -0.158; in assay [4], 0.0818.
Take `CC(=O)OC[C@H]1O[C@@H]([S-])[C@H](OC(C)=O)[C@@H](OC(C)=O)[C@@H]1OC(C)=O.CCP(CC)CC.[Au+]` [Auranofin] + CN(C)C(=O)C(CCN1CCC(O)(c2ccc(Cl)cc2)CC1)(c1ccccc1)c1ccccc1 [Loperamide]: the Bliss interaction score in assay [1] stood at 0.0252; in assay [2], 0.0417; in assay [3], 0.113; in assay [4], 0.116.
For the compound `CC(=O)OC[C@H]1O[C@@H]([S-])[C@H](OC(C)=O)[C@@H](OC(C)=O)[C@@H]1OC(C)=O.CCP(CC)CC.[Au+]` [Auranofin] + CN(C)[C@@H]1C(O)=C(C(N)=O)C(=O)[C@@]2(O)C(O)=C3C(=O)c4c(O)ccc(Cl)c4[C@@](C)(O)[C@H]3C[C@@H]12 [Clortetracycline], the Bliss interaction score in assay [1] is 0.0317; in assay [2] it was 0.0659; in assay [3], 0.0623; in assay [4], 0.0541.
For `CC(=O)OC[C@H]1O[C@@H]([S-])[C@H](OC(C)=O)[C@@H](OC(C)=O)[C@@H]1OC(C)=O.CCP(CC)CC.[Au+]` [Auranofin] + CN(C)c1cc(NC(=O)CNC(C)(C)C)c(O)c2c1C[C@H]1C[C@H]3[C@H](N(C)C)C(O)=C(C(N)=O)C(=O)[C@@]3(O)C(O)=C1C2=O [Tigecycline], in that order: -0.0332, 0.0508, -0.066 and 0.0966.
As to `O=C(N[C@H](CO)[C@H](O)c1ccc([N+](=O)[O-])cc1)C(Cl)Cl` [Chloramphenicol] + COc1cccc2c1C(=O)c1c(O)c3c(c(O)c1C2=O)C[C@@](O)(C(=O)CO)C[C@@H]3O[C@H]1C[C@H](N)[C@H](O)[C@H](C)O1 [Doxorubicin], the fitness in assay [5] (setting [7]) amounted to 0.646; in assay [5] (setting [8]), 0.698; in assay [5] (setting [9]), 0.663; in assay [5] (setting [10]) it was 0.572; in assay [5] (setting [11]), 0.569; in assay [5] (setting [12]), 0.525. For the same compound, the fitness in assay [5] (setting [13]) stood at 0.118; in assay [5] (setting [14]), 0.121; in assay [6] (setting [7]), 0.676; in assay [6] (setting [8]), 0.72; in assay [6] (setting [9]) it was 0.685; in assay [6] (setting [10]) it was 0.564. In addition, the fitness in assay [6] (setting [11]) worked out at 0.562; in assay [6] (setting [12]) it was 0.579; in assay [6] (setting [13]), 0.326; in assay [6] (setting [14]), 0.291. Moreover, the figures for the Bliss interaction score in assay [2], in assay [3] and in assay [4] were -0.0604, 0.132 and -0.127, respectively.
With `O=C(N[C@H](CO)[C@H](O)c1ccc([N+](=O)[O-])cc1)C(Cl)Cl` [Chloramphenicol] + Cc1ncc([N+](=O)[O-])n1CCO [Metronidazole], the fitness in assay [5] (setting [7]) worked out at 0.775; in assay [5] (setting [8]), 0.736; in assay [5] (setting [9]) it was 0.755; in assay [6] (setting [7]), 0.796; in assay [6] (first compound 0.75 µg/mL, partner 0.781 µg/mL), 0.789; in assay [6] (setting [8]), 0.819. Further, the fitness was found to be 0.768 in assay [6] (first compound 0.75 µg/mL, partner 1.562 µg/mL); 0.853 in assay [6] (setting [9]); 0.752 in assay [6] (first compound 0.75 µg/mL, partner 3.124 µg/mL); 0.555 in assay [6] (setting [10]); 0.539 in assay [6] (first compound 1.5 µg/mL, partner 0.781 µg/mL); 0.573 in assay [6] (setting [11]). The fitness was 0.527 in assay [6] (first compound 1.5 µg/mL, partner 1.562 µg/mL); 0.564 in assay [6] (setting [12]); 0.521 in assay [6] (first compound 1.5 µg/mL, partner 3.124 µg/mL); 0.159 in assay [6] (setting [13]); 0.167 in assay [6] (setting [14]); 0.172 in assay [6] (first compound 3 µg/mL, partner 1.562 µg/mL). Besides, the fitness in assay [6] (first compound 3 µg/mL, partner 3.124 µg/mL) was 0.231. The Bliss interaction score in assay [2] is 0.0423; in assay [3], -0.07; in assay [4], 0.0867.
